# Measured values from patent publication US20260062412A1, “NITROGEN-CONTAINING HETEROCYCLIC COMPOUND HAVING MYT1 INHIBITORY ACTIVITY” (CHUGAI SEIYAKU KABUSHIKI KAISHA, priority 2023, published 2026).
# Biological target: MYT1 protein (Homo sapiens (Human), UniProt Q99640)
# Experiment: Test for binding to ATP binding site of MYT1 (Kinase Tracer 178 / Eu-Anti-GST antibody TR-FRET)
# Conditions: ATP binding site of MYT1, 30 minutes at room temperature
# Method: The binding capacity of each compound to the ATP binding site of MYT1 Kinase protein was evaluated. 5× Kinase Buffer A (manufactured by Thermo Fisher Scientific Inc., PV3189) was diluted to 5 times with Milli-Q water, thereby preparing 1× Kinase Buffer. Using 1× Kinase Buffer, MYT1 protein (manufactured by Carna Biosciences, Inc.) was diluted to a concentration of 0.005 μM and Eu-Anti-GST Antibody was diluted to a concentration of 1 μM. […] To a 96 well-plate, 2.5 μL of a compound diluted with DMSO was added. […] The mixture was well mixed and then allowed to stand at room temperature for 30 minutes. Thereafter, fluorescence wavelengths of 665 nm and 615 nm generated by irradiation with excitation light of 340 nm were detected using Envision (manufactured by PerkinElmer). The proportion of Tracer bound to MYT1 protein was calculated for every condition by dividing the intensity at the fluorescence wavelength of 665 nm by the intensity at the fluorescence wavelength of 615 nm.
# MYT1 protein, sequence (Q99640 whole entry): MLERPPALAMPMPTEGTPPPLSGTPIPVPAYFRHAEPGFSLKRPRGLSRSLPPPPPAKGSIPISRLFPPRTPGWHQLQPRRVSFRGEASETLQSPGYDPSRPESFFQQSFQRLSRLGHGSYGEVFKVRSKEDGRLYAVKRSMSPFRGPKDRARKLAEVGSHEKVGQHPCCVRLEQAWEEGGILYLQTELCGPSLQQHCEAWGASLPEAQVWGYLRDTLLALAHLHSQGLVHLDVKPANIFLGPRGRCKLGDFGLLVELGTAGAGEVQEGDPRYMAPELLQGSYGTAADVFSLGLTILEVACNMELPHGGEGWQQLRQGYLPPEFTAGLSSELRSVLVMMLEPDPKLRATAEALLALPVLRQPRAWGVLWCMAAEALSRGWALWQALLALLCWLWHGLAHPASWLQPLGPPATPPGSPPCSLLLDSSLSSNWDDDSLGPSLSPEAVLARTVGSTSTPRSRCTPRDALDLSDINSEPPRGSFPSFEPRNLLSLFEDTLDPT
row,SMILES,IC50
1,"Nc1c(-c2ccc(Cl)c3[nH]ncc23)c2cc(C3CCN(C4COC4)CC3)ccc2[nH]c1=O [Compound A36, 3-Amino-4-(7-chloro-1H-indazol-4-yl)-6-[1-(oxetane-3-yl)piperidin-4-yl]-1H-quinolin-2-one]",18 nM
2,"Nc1c(-c2cc(F)c(F)c3[nH]ncc23)c2cc(OCC3CC3)c3ncccc3c2[nH]c1=O [Compound C70, 3-Amino-6-(cyclopropylmethoxy)-4-(6,7-difluoro-1H-indazol-4-yl)-1H-1,7-phenanthrolin-2-one]",1.1 nM
3,"Cc1nc2[nH]c(=O)c(N)c(-c3ccc(Cl)c4[nH]ncc34)c2cc1O[C@H]1C[C@H](C#N)C1 [Compound A16, (1r,3r)-3-[[6-Amino-5-(7-chloro-1H-indazol-4-yl)-2-methyl-7-oxo-8H-1,8-naphthyridine-3-yl]oxy]cyclobutane-1-carbonitrile]",5 nM
4,"Nc1c(-c2ccc(Cl)c3[nH]ncc23)c2cc(OC3CCC3)c(F)cc2[nH]c1=O [Compound A7, 3-Amino-4-(7-chloro-1H-indazol-4-yl)-6-cyclobutyloxy-7-fluoro-1H-quinolin-2-one]",4.4 nM
5,"Nc1c(-c2ccc(Cl)c3[nH]ncc23)c2cc(O[C@H]3C[C@H](F)C3)c(F)cc2[nH]c1=O [Compound A4, 3-Amino-4-(7-chloro-1H-indazol-4-yl)-7-fluoro-6-((1r,3r)-3-fluorocyclobutyl)oxy-1H-quinolin-2-one]",3.8 nM
6,"Nc1c(-c2ccc(Cl)c3[nH]ncc23)c2cc(C3CCNCC3)ccc2[nH]c1=O [Compound A33, 3-Amino-4-(7-chloro-1H-indazol-4-yl)-6-piperidin-4-yl-1H-quinolin-2-one; 2,2,2-trifluoroacetate]",13 nM
7,"Nc1c(-c2ccc(Cl)c3[nH]ncc23)c2cc(O[C@H]3C[C@H](F)C3)c(Cl)cc2[nH]c1=O [Compound A11, 3-Amino-7-chloro-4-(7-chloro-1H-indazol-4-yl)-6-((1r,3r)-3-fluorocyclobutyl)oxy-1H-quinolin-2-one]",3.9 nM
8,"Nc1c(-c2ccc(F)c3[nH]ncc23)c2cc(C3CC4(C3)CC(F)(F)C4)c3ncccc3c2[nH]c1=O [Compound C166, 3-Amino-6-(2,2-difluorospiro[3,3]heptan-6-yl)-4-(7-fluoro-1H-indazol-4-yl)-1H-1,7-phenanthrolin-2-one]",2.9 nM
9,"Cc1cc2c(nn1)c(Br)cc1c(-c3ccc(F)c4[nH]ncc34)c(N)c(=O)[nH]c12 [Compound S1, 3-Amino-6-bromo-4-(7-fluoro-1H-indazol-4-yl)-9-methyl-1H-pyrido[2,3-f]cinnolin-2-one]",370 nM
10,"Nc1c(-c2ccc(F)c3[nH]ncc23)c2cc(OC3CCC3)c3ncccc3c2[nH]c1=O [Compound C18, 3-Amino-6-cyclobutyloxy-4-(7-fluoro-1H-indazol-4-yl)-1H-1,7-phenanthrolin-2-one]",2 nM
11,"CC#Cc1cc2c(-c3ccc(F)c4[nH]ncc34)c(N)c(=O)[nH]c2c2ccccc12 [Compound B28, 3-Amino-4-(7-fluoro-1H-indazol-4-yl)-6-prop-1-inyl-1H-benzo[h]quinolin-2-one]",22 nM
12,"Nc1c(-c2cccnc2)c2cc(Cl)ccc2[nH]c1=O [Compound A45, 3-Amino-6-chloro-4-pyridin-3-yl-1H-quinolin-2-one]",5000 nM
13,"CC(C)N1CC(c2cc3c(-c4ccc(F)c5[nH]ncc45)c(N)c(=O)[nH]c3c3ncccc23)C1 [Compound D29, 3-Amino-4-(7-fluoro-1H-indazol-4-yl)-6-(1-propan-2-ylazetidin-3-yl)-1H-1,10-phenanthrolin-2-one]",5.7 nM
14,"Nc1c(-c2ccc(F)c3[nH]ncc23)c2cc(O[C@H]3CCOC3)c3ncccc3c2[nH]c1=O [Compound C12, 3-Amino-4-(7-fluoro-1H-indazol-4-yl)-6-[(3S)-oxolan-3-yl]oxy-1H-1,7-phenanthrolin-2-one]",2.2 nM
15,"Nc1c(-c2ccc(F)c3[nH]ncc23)c2cc(C3CC3)c3nccnc3c2[nH]c1=O [Compound G4, 8-Amino-5-cyclopropyl-7-(7-fluoro-1H-indazol-4-yl)-10H-pyrido[2,3-f]quinoxalin-9-one]",3.2 nM
16,"N#Cc1cc(Cl)cc2c(-c3ccc(Cl)c4[nH]ncc34)c(N)c(=O)[nH]c12 [Compound A21, 3-Amino-6-chloro-4-(7-chloro-1H-indazol-4-yl)-2-oxo-1H-quinoline-8-carbonitrile]",20 nM
17,"N#C[C@H]1C[C@@H](c2cc3c(-c4ccc(F)c5[nH]ncc45)c(N)c(=O)[nH]c3c3cccnc32)C1 [Compound C178, (1s,3s)-3-[3-Amino-4-(7-fluoro-1H-indazol-4-yl)-2-oxo-1H-1,7-phenanthrolin-6-yl]cyclobutane-1-carbonitrile]",2.3 nM
18,"Cc1cc2c(-c3ccc(F)c4[nH]ncc34)c(N)c(=O)[nH]c2c2ncn(C)c12 [Compound M2, 7-Amino-6-(7-fluoro-1H-indazol-4-yl)-3,4-dimethyl-9H-imidazo[4,5-h]quinolin-8-one]",14 nM
19,"Nc1c(-c2cncc3[nH]ncc23)c2cc(Br)c3ncccc3c2[nH]c1=O [Compound C80, 3-Amino-6-bromo-4-(1H-pyrazolo[3,4-c]pyridin-4-yl)-1H-1,7-phenanthrolin-2-one]",100 nM
20,"Nc1c(-c2cc(F)c(F)c3[nH]ncc23)c2cc(OCCC(F)F)c3ncccc3c2[nH]c1=O [Compound C214, 3-Amino-4-(6,7-difluoro-1H-indazol-4-yl)-6-(3,3-difluoropropoxy)-1H-1,7-phenanthrolin-2-one]",1.7 nM
21,"Cn1ncc2c(-c3c(N)c(=O)[nH]c4c3cc(Br)c3ncccc34)ccc(F)c21 [Compound C2, 3-Amino-6-bromo-4-(7-fluoro-1-methylindazol-4-yl)-1H-1,7-phenanthrolin-2-one]",1100 nM
22,"CS(=O)(=O)Nc1cc2c(-c3ccc(F)c4[nH]ncc34)c(N)c(=O)[nH]c2c2cccnc12 [Compound C127, N-[3-Amino-4-(7-fluoro-1H-indazol-4-yl)-2-oxo-1H-1,7-phenanthrolin-6-yl]methanesulfonamide]",1.5 nM
23,"CC(C)(C)C1CC(c2cc3c(-c4ccc(F)c5[nH]ncc45)c(N)c(=O)[nH]c3c3cccnc23)C1 (stereo not drawn) [Compound C173, 3-Amino-6-(3-tert-butylcyclobutyl)-4-(7-fluoro-1H-indazol-4-yl)-1H-1,7-phenanthrolin-2-one]",95 nM
24,"CC(=O)Nc1cc2c(-c3ccc(F)c4[nH]ncc34)c(N)c(=O)[nH]c2c2ncccc12 [Compound D19, N-[8-amino-7-(7-fluoro-1H-indazol-4-yl)-9-oxo-10H-1,10-phenanthrolin-5-yl]acetamide]",22 nM
25,"CC[C@@H](C)Oc1cc2c(-c3ccc(F)c4[nH]ncc34)c(N)c(=O)[nH]c2c2nccnc12 [Compound G14, 8-Amino-5-[(2R)-butan-2-yl]oxy-7-(7-fluoro-1H-indazol-4-yl)-10H-pyrido[2,3-f]quinoxalin-9-one]",0.69 nM
26,"CC(C)Oc1cc2c(-c3ccc(F)c4[nH]ncc34)c(N)c(=O)[nH]c2c2ccc(=O)[nH]c12 [Compound T5, 3-Amino-4-(7-fluoro-1H-indazol-4-yl)-6-propan-2-yloxy-1,7-dihydro-1,7-phenanthroline-2,8-dione]",3.5 nM
27,"Nc1c(-c2cccc(OC(F)F)c2)c2cc(Cl)ccc2[nH]c1=O [Compound A50, 3-Amino-6-chloro-4-[3-(difluoromethoxy)phenyl]-1H-quinolin-2-one]",5800 nM
